ChEMBL document CHEMBL3044736, “Synthesis, characterization, solvatochromic properties, and antimicrobial evaluation of 5-acetyl-2-thioxo-dihydro-pyrimidine-4,6-dione-based chalcones” (2013)
Converted amounts (≈) assume the structure as drawn.

Legend:
Format in all cases: functional
Penicillium [1] = assay: Antimicrobial activity against Penicillium wild strain assessed as diameter of growth inhibition zone at 50 ug/ml after 48-96 hr by agar cup diffusion method; conditions: read-out: DIZ
Staphylococcus aureus [2] = assay: Antimicrobial activity against Staphylococcus aureus MTCC 96 assessed as diameter of growth inhibition zone at 250 ug/ml after 18-24 hr by agar cup diffusion method; conditions: read-out: DIZ
Streptococcus pyogenes [3] = assay: Antimicrobial activity against Streptococcus pyogenes MTCC 442 by agar cup diffusion method
Streptococcus pyogenes [4] = assay: Antimicrobial activity against Streptococcus pyogenes MTCC 442 assessed as diameter of growth inhibition zone at 50 ug/ml after 18-24 hr by agar cup diffusion method; conditions: read-out: DIZ
Trichophyton rubrum [5] = assay: Antimicrobial activity against Trichophyton rubrum MTCC 296 assessed as diameter of growth inhibition zone at 100 ug/ml after 48-96 hr by agar cup diffusion method; conditions: read-out: DIZ
Staphylococcus aureus [6] = assay: Antimicrobial activity against Staphylococcus aureus MTCC 96 by agar cup diffusion method
Escherichia coli [7] = assay: Antimicrobial activity against Escherichia coli MTCC 443 assessed as diameter of growth inhibition zone at 50 ug/ml after 18-24 hr by agar cup diffusion method; conditions: read-out: DIZ
Streptococcus pyogenes [8] = assay: Antimicrobial activity against Streptococcus pyogenes MTCC 442 assessed as diameter of growth inhibition zone at 250 ug/ml after 18-24 hr by agar cup diffusion method; conditions: read-out: DIZ
Staphylococcus aureus [9] = assay: Antimicrobial activity against Staphylococcus aureus MTCC 96 assessed as diameter of growth inhibition zone at 100 ug/ml after 18-24 hr by agar cup diffusion method; conditions: read-out: DIZ
Trichophyton rubrum [10] = assay: Antimicrobial activity against Trichophyton rubrum MTCC 296 assessed as diameter of growth inhibition zone at 50 ug/ml after 48-96 hr by agar cup diffusion method; conditions: read-out: DIZ
Klebsiella pneumoniae [11] = assay: Antimicrobial activity against Klebsiella pneumoniae MTCC 109 assessed as diameter of growth inhibition zone at 50 ug/ml after 18-24 hr by agar cup diffusion method; conditions: read-out: DIZ
Streptococcus pyogenes [12] = assay: Antimicrobial activity against Streptococcus pyogenes MTCC 442 assessed as diameter of growth inhibition zone at 25 ug/ml after 18-24 hr by agar cup diffusion method; conditions: read-out: DIZ
Candida albicans [13] = assay: Antimicrobial activity against Candida albicans MTCC 227 assessed as diameter of growth inhibition zone at 25 ug/ml after 48-96 hr by agar cup diffusion method; conditions: read-out: DIZ
Candida albicans [14] = assay: Antimicrobial activity against Candida albicans MTCC 227 by agar cup diffusion method
Aspergillus clavatus [15] = assay: Antimicrobial activity against Aspergillus clavatus MTCC 1323 assessed as diameter of growth inhibition zone at 25 ug/ml after 48-96 hr by agar cup diffusion method; conditions: read-out: DIZ
Pseudomonas aeruginosa [16] = assay: Antimicrobial activity against Pseudomonas aeruginosa MTCC 1688 assessed as diameter of growth inhibition zone at 100 ug/ml after 18-24 hr by agar cup diffusion method; conditions: read-out: DIZ
Pseudomonas aeruginosa [17] = assay: Antimicrobial activity against Pseudomonas aeruginosa MTCC 1688 assessed as diameter of growth inhibition zone at 250 ug/ml after 18-24 hr by agar cup diffusion method; conditions: read-out: DIZ
Trichophyton rubrum [18] = assay: Antimicrobial activity against Trichophyton rubrum MTCC 296 by agar cup diffusion method
Candida albicans [19] = assay: Antimicrobial activity against Candida albicans MTCC 227 assessed as diameter of growth inhibition zone at 100 ug/ml after 48-96 hr by agar cup diffusion method; conditions: read-out: DIZ
Penicillium [20] = assay: Antimicrobial activity against Penicillium wild strain assessed as diameter of growth inhibition zone at 250 ug/ml after 48-96 hr by agar cup diffusion method; conditions: read-out: DIZ
Penicillium [21] = assay: Antimicrobial activity against Penicillium wild strain by agar cup diffusion method
Staphylococcus aureus [22] = assay: Antimicrobial activity against Staphylococcus aureus MTCC 96 assessed as diameter of growth inhibition zone at 25 ug/ml after 18-24 hr by agar cup diffusion method; conditions: read-out: DIZ
Klebsiella pneumoniae [23] = assay: Antimicrobial activity against Klebsiella pneumoniae MTCC 109 by agar cup diffusion method
Escherichia coli [24] = assay: Antimicrobial activity against Escherichia coli MTCC 443 assessed as diameter of growth inhibition zone at 25 ug/ml after 18-24 hr by agar cup diffusion method; conditions: read-out: DIZ
Streptococcus pyogenes [25] = assay: Antimicrobial activity against Streptococcus pyogenes MTCC 442 assessed as diameter of growth inhibition zone at 100 ug/ml after 18-24 hr by agar cup diffusion method; conditions: read-out: DIZ
Pseudomonas aeruginosa [26] = assay: Antimicrobial activity against Pseudomonas aeruginosa MTCC 1688 by agar cup diffusion method
Klebsiella pneumoniae [27] = assay: Antimicrobial activity against Klebsiella pneumoniae MTCC 109 assessed as diameter of growth inhibition zone at 100 ug/ml after 18-24 hr by agar cup diffusion method; conditions: read-out: DIZ
Escherichia coli [28] = assay: Antimicrobial activity against Escherichia coli MTCC 443 assessed as diameter of growth inhibition zone at 250 ug/ml after 18-24 hr by agar cup diffusion method; conditions: read-out: DIZ
Pseudomonas aeruginosa [29] = assay: Antimicrobial activity against Pseudomonas aeruginosa MTCC 1688 assessed as diameter of growth inhibition zone at 50 ug/ml after 18-24 hr by agar cup diffusion method; conditions: read-out: DIZ
Aspergillus clavatus [30] = assay: Antimicrobial activity against Aspergillus clavatus MTCC 1323 assessed as diameter of growth inhibition zone at 250 ug/ml after 48-96 hr by agar cup diffusion method; conditions: read-out: DIZ
Aspergillus clavatus [31] = assay: Antimicrobial activity against Aspergillus clavatus MTCC 1323 assessed as diameter of growth inhibition zone at 50 ug/ml after 48-96 hr by agar cup diffusion method; conditions: read-out: DIZ
Penicillium [32] = assay: Antimicrobial activity against Penicillium wild strain assessed as diameter of growth inhibition zone at 25 ug/ml after 48-96 hr by agar cup diffusion method; conditions: read-out: DIZ
Escherichia coli [33] = assay: Antimicrobial activity against Escherichia coli MTCC 443 by agar cup diffusion method
Aspergillus clavatus [34] = assay: Antimicrobial activity against Aspergillus clavatus MTCC 1323 by agar cup diffusion method
Aspergillus clavatus [35] = assay: Antimicrobial activity against Aspergillus clavatus MTCC 1323 assessed as diameter of growth inhibition zone at 100 ug/ml after 48-96 hr by agar cup diffusion method; conditions: read-out: DIZ
Penicillium [36] = assay: Antimicrobial activity against Penicillium wild strain assessed as diameter of growth inhibition zone at 100 ug/ml after 48-96 hr by agar cup diffusion method; conditions: read-out: DIZ
Escherichia coli [37] = assay: Antimicrobial activity against Escherichia coli MTCC 443 assessed as diameter of growth inhibition zone at 100 ug/ml after 18-24 hr by agar cup diffusion method; conditions: read-out: DIZ
Klebsiella pneumoniae [38] = assay: Antimicrobial activity against Klebsiella pneumoniae MTCC 109 assessed as diameter of growth inhibition zone at 250 ug/ml after 18-24 hr by agar cup diffusion method; conditions: read-out: DIZ
Staphylococcus aureus [39] = assay: Antimicrobial activity against Staphylococcus aureus MTCC 96 assessed as diameter of growth inhibition zone at 50 ug/ml after 18-24 hr by agar cup diffusion method; conditions: read-out: DIZ
Trichophyton rubrum [40] = assay: Antimicrobial activity against Trichophyton rubrum MTCC 296 assessed as diameter of growth inhibition zone at 250 ug/ml after 48-96 hr by agar cup diffusion method; conditions: read-out: DIZ
Candida albicans [41] = assay: Antimicrobial activity against Candida albicans MTCC 227 assessed as diameter of growth inhibition zone at 250 ug/ml after 48-96 hr by agar cup diffusion method; conditions: read-out: DIZ
Pseudomonas aeruginosa [42] = assay: Antimicrobial activity against Pseudomonas aeruginosa MTCC 1688 assessed as diameter of growth inhibition zone at 25 ug/ml after 18-24 hr by agar cup diffusion method; conditions: read-out: DIZ
Candida albicans [43] = assay: Antimicrobial activity against Candida albicans MTCC 227 assessed as diameter of growth inhibition zone at 50 ug/ml after 48-96 hr by agar cup diffusion method; conditions: read-out: DIZ
Trichophyton rubrum [44] = assay: Antimicrobial activity against Trichophyton rubrum MTCC 296 assessed as diameter of growth inhibition zone at 25 ug/ml after 48-96 hr by agar cup diffusion method; conditions: read-out: DIZ
Klebsiella pneumoniae [45] = assay: Antimicrobial activity against Klebsiella pneumoniae MTCC 109 assessed as diameter of growth inhibition zone at 25 ug/ml after 18-24 hr by agar cup diffusion method; conditions: read-out: DIZ

For `O=C(/C=C/c1cccc([N+](=O)[O-])c1)C1C(=O)NC(=S)NC1=O`, the zone of inhibition at 50 µg/mL (Penicillium [1]) was 20 mm, the zone of inhibition at 250 µg/mL (Staphylococcus aureus [2]) was 19 mm and the MBC (Streptococcus pyogenes [3]) was 250 µg/mL (≈ 783 µM). For the same compound, the MIC (Streptococcus pyogenes [3]) was 200 µg/mL (≈ 626 µM), the zone of inhibition at 50 µg/mL (Streptococcus pyogenes [4]) was 17 mm and the zone of inhibition at 100 µg/mL (Trichophyton rubrum [5]) was 22 mm. The MBC (Staphylococcus aureus [6]) was 250 µg/mL (≈ 783 µM), the MIC (Staphylococcus aureus [6]) was 200 µg/mL (≈ 626 µM) and the zone of inhibition at 50 µg/mL (Escherichia coli [7]) was 17 mm. The zone of inhibition at 250 µg/mL (Streptococcus pyogenes [8]) was 18 mm, the zone of inhibition at 100 µg/mL (Staphylococcus aureus [9]) was 17 mm and the zone of inhibition at 50 µg/mL (Trichophyton rubrum [10]) was 21 mm. The zone of inhibition at 50 µg/mL (Klebsiella pneumoniae [11]) was 14 mm, the zone of inhibition at 25 µg/mL (Streptococcus pyogenes [12]) was 15 mm and the zone of inhibition at 25 µg/mL (Candida albicans [13]) was 21 mm. It also gave an MFC (Candida albicans [14]) of 1000 µg/mL (≈ 3130 µM), an MIC (Candida albicans [14]) of 1000 µg/mL (≈ 3130 µM) and a zone of inhibition at 25 µg/mL (Aspergillus clavatus [15]) of 20 mm. It also gave a zone of inhibition at 100 µg/mL (Pseudomonas aeruginosa [16]) of 17 mm, a zone of inhibition at 250 µg/mL (Pseudomonas aeruginosa [17]) of 19 mm and an MFC (Trichophyton rubrum [18]) of 1000 µg/mL (≈ 3130 µM). The MIC (Trichophyton rubrum [18]) was 1000 µg/mL (≈ 3130 µM), the zone of inhibition at 100 µg/mL (Candida albicans [19]) was 23 mm and the zone of inhibition at 250 µg/mL (Penicillium [20]) was 22 mm. The MFC (Penicillium [21]) was 1000 µg/mL (≈ 3130 µM), the MIC (Penicillium [21]) was 1000 µg/mL (≈ 3130 µM) and the zone of inhibition at 25 µg/mL (Staphylococcus aureus [22]) was 14 mm. The MBC (Klebsiella pneumoniae [23]) was 100 µg/mL (≈ 313 µM), the MIC (Klebsiella pneumoniae [23]) was 62.5 µg/mL (≈ 196 µM) and the zone of inhibition at 25 µg/mL (Escherichia coli [24]) was 15 mm. It also gave a zone of inhibition at 100 µg/mL (Streptococcus pyogenes [25]) of 18 mm, an MBC (Pseudomonas aeruginosa [26]) of 200 µg/mL (≈ 626 µM) and an MIC (Pseudomonas aeruginosa [26]) of 125 µg/mL (≈ 391 µM). It also gave a zone of inhibition at 100 µg/mL (Klebsiella pneumoniae [27]) of 17 mm, a zone of inhibition at 250 µg/mL (Escherichia coli [28]) of 18 mm and a zone of inhibition at 50 µg/mL (Pseudomonas aeruginosa [29]) of 16 mm. For the same compound, the zone of inhibition at 250 µg/mL (Aspergillus clavatus [30]) was 24 mm, the zone of inhibition at 50 µg/mL (Aspergillus clavatus [31]) was 22 mm and the zone of inhibition at 25 µg/mL (Penicillium [32]) was 18 mm. For the same compound, the MBC (Escherichia coli [33]) was 100 µg/mL (≈ 313 µM), the MIC (Escherichia coli [33]) was 100 µg/mL (≈ 313 µM) and the MFC (Aspergillus clavatus [34]) was 1000 µg/mL (≈ 3130 µM). The MIC (Aspergillus clavatus [34]) was 1000 µg/mL (≈ 3130 µM), the zone of inhibition at 100 µg/mL (Aspergillus clavatus [35]) was 22 mm and the zone of inhibition at 100 µg/mL (Penicillium [36]) was 21 mm. For the same compound, the zone of inhibition at 100 µg/mL (Escherichia coli [37]) was 18 mm, the zone of inhibition at 250 µg/mL (Klebsiella pneumoniae [38]) was 18 mm and the zone of inhibition at 50 µg/mL (Staphylococcus aureus [39]) was 16 mm. The zone of inhibition at 250 µg/mL (Trichophyton rubrum [40]) was 27 mm, the zone of inhibition at 250 µg/mL (Candida albicans [41]) was 24 mm and the zone of inhibition at 25 µg/mL (Pseudomonas aeruginosa [42]) was 14 mm. The zone of inhibition at 50 µg/mL (Candida albicans [43]) was 22 mm, the zone of inhibition at 25 µg/mL (Trichophyton rubrum [44]) was 18 mm and the zone of inhibition at 25 µg/mL (Klebsiella pneumoniae [45]) was 10 mm.
